Laboratory results taken from BindingDB's records for patent US20240335431 (Acerta Pharma, 2024).

target: T1, Menin (Homo sapiens, UniProt O00255); test: Fluorescence Polarization (FP) Assay
T1 sequence (O00255 whole entry): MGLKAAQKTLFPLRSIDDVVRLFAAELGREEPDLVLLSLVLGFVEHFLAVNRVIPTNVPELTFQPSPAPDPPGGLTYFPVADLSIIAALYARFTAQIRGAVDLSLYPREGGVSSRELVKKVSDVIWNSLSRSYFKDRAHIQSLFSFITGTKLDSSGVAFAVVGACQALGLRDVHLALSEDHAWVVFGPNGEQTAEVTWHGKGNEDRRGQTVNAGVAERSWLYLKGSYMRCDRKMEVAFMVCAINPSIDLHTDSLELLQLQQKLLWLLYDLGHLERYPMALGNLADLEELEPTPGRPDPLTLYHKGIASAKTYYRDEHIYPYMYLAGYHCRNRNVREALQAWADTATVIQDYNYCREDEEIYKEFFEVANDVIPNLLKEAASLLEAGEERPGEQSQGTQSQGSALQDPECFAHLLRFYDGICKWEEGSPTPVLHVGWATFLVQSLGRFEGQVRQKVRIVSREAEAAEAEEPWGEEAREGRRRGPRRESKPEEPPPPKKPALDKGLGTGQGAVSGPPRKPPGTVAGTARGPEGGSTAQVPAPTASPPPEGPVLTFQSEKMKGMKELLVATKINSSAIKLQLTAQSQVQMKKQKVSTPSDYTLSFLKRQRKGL
Protocol: Compounds were tested in a biochemical binding assay using Menin protein at 2 nM (N6his-tev-Menin_4i80, PB-20-1459) and the substrate cRho110-Ahx-MBM1/MBM2 peptide (UbiQ, UbiQ-Q20201030; cRh110-Ahx-[…]-QRVPALLLPPG-NH2) at 1 nM.384 Low volume black plates (Corning #4514) were used. 5 μL/well compound or 3% DMSO was added at 10-fold serial dilutions in DMSO from 10 μM. 5 μL/well cRho110-Ahx-MBM1/MBM2 peptide or binding buffer (50 mM Tris pH 7.5, 50 mM NaCl, 1 mM TCEP, 0.01% BGG, 0.01% Brij-35) was added to all wells. 5 μL/well Menin protein or binding buffer (50 mM Tris pH 7.5, 50 mM NaCl, 1 mM TCEP, 0.01% BGG, 0.01% Brij-35) was added to all wells. Plates were read on an EnVision plate reader (Perkin Elmer) with excitation at 480 nm and emission at 535 nm P+S, and measured every 5 minutes for 180 minutes.

IC50 [nM]	Compound
7	COCCN(C)CCC[C@H](C(C)C)N1CCC(C(=O)c2cn(-c3ccc(F)cc3C(=O)N(C(C)C)C(C)C)c3cnccc23)CC1 (racemic) [US20240335431, Example 23]
27	CC(C)N(C(=O)c1cc(F)ccc1-n1cc(C(=O)C2CCN(C(=O)[C@H]3NC[C@@H]4CC[C@@H]43)CC2)c2ccncc21)C(C)C (relative stereo) [US20240335431, Example 25]
36	CC(C)N(C(=O)c1cc(F)ccc1-n1cc(C(=O)[C@@H]2CCCN(C(=O)[C@H]3N[C@@H]4CC[C@H]3C4)CC2)c2ccncc21)C(C)C (relative stereo) [US20240335431, Example 45]
2140	CCN(C(=O)c1cc(F)ccc1-n1c(C)c(C(=O)C2CCN(C(=O)[C@@H]3CCC4(CC4)N3)CC2)c2ccncc21)C(C)C (single isomer, unassigned) [US20240335431, Example 49-1]
5500	CCN(C(=O)c1cc(F)ccc1-n1c(C)c(C(=O)C2CCN(C(=O)[C@@H]3CCC(C)(C)N3)CC2)c2ccncc21)C(C)C (single isomer, unassigned) [US20240335431, Example 50-1]
778	Cc1c(C(=O)C2CCN(C(=O)[C@H]3NC[C@@H]4C[C@@H]43)CC2)c2ccncc2n1-c1ccc(F)cc1C(=O)N(CC(F)(F)F)C(C)C (single isomer, unassigned) [US20240335431, Example 51-1]
1340	Cc1c(C(=O)C2CCN(C(=O)[C@H]3NC[C@@H]4C[C@@H]43)CC2)c2ccncc2n1-c1ccc(F)cc1C(=O)N(C(C)C)C(C)C (single isomer, unassigned) [US20240335431, Example 55-1]
2150	Cc1c(C(=O)C2CCN(C(=O)[C@@H]3CCC(C)(C)N3)CC2)c2ccncc2n1-c1ccc(F)cc1C(=O)N(C(C)C)C(C)C (single isomer, unassigned) [US20240335431, Example 56-1]
33	Cc1c(C(=O)C2CCN(C(=O)[C@H]3NC[C@@H]4C[C@@H]43)CC2)c2ccncc2n1-c1ccc(F)cc1C(=O)N(C(C)C)[C@H](C)C(F)(F)F (single isomer, unassigned) [US20240335431, Example 57-1]
351	Cc1c(C(=O)C2CCN(C(=O)[C@@H]3CCC4(CC4)N3)CC2)c2ccncc2n1-c1ccc(F)cc1C(=O)N1[C@H](C)COC[C@H]1C (single isomer, unassigned) [US20240335431, Example 58-1]
16	CCN(C(=O)c1cc(F)ccc1-n1c(C)c(C(=O)[C@@H]2CCN(C(=O)[C@@H]3CCC4(CC4)N3)[C@@H](C)C2)c2ccncc21)C(C)C (single isomer, unassigned; form 1) [US20240335431, Example 52-1]
18	CCN(C(=O)c1cc(F)ccc1-n1c(C)c(C(=O)[C@@H]2CCN(C(=O)[C@@H]3CCC4(CC4)N3)[C@@H](C)C2)c2ccncc21)C(C)C (single isomer, unassigned; form 2) [US20240335431, Example 52-2]
19	CC(C)N(C(=O)c1cc(F)ccc1-n1cc(C(=O)C2CCN(C(=O)[C@@H]3CCC4(CC4)N3)CC2)c2ccncc21)C(C)C [US20240335431, Example 24]
43	CC(C)N(C(=O)c1cc(F)ccc1-n1cc(C(=O)C2CCN(C(=O)[C@@H]3CC4(CC4)CN3)CC2)c2ccncc21)C(C)C [US20240335431, Example 26]
25	CC(C)N(C(=O)c1cc(F)ccc1-n1cc(C(=O)C2CCN(C(=O)[C@@H]3CCC(C)(C)N3)CC2)c2ccncc21)C(C)C [US20240335431, Example 27]
17	CCN(C(=O)c1cc(F)ccc1-n1cc(C(=O)C2CCN(C(=O)[C@H]3N[C@H]4C[C@@H]3[C@@H](F)C4)CC2)c2ccncc21)C(C)C [US20240335431, Example 30]
10	CCN(C(=O)c1cc(F)ccc1-n1cc(C(=O)C2CCN(C(=O)[C@H]3N[C@@H]4CC[C@H]3C4)CC2)c2ccncc21)C(C)C [US20240335431, Example 31]
36	C[C@@H]1CC[C@H](C)N1C(=O)c1cc(F)ccc1-n1cc(C(=O)C2CCN(C(=O)[C@H]3N[C@@H]4CC[C@H]3C4)CC2)c2ccncc21 [US20240335431, Example 32]
37	C[C@@H]1CCC[C@H](C)N1C(=O)c1cc(F)ccc1-n1cc(C(=O)C2CCN(C(=O)[C@H]3N[C@@H]4CC[C@H]3C4)CC2)c2ccncc21 [US20240335431, Example 33]

Further lines, the compound ahead of its results:

Compound	IC50 [nM]
CC(C)N(C(=O)c1cc(F)ccc1-n1cc(C(=O)[C@H]2CCN(C[C@H]3CC[C@H](NS(C)(=O)=O)CC3)C2)c2ccncc21)C(C)C [US20240335431, Example 1]	29
CC(C)N(C(=O)c1cc(F)ccc1-n1cc(C(=O)[C@H]2CCN(C(=O)[C@H]3N[C@@H]4CC[C@H]3C4)C2)c2ccncc21)C(C)C [US20240335431, Example 2]	47
CC(C)N(C(=O)c1cc(F)ccc1-n1cc(C(=O)[C@@H]2CCN(C(=O)[C@H]3N[C@@H]4CC[C@H]3C4)C2)c2ccncc21)C(C)C [US20240335431, Example 3]	25
CC(C)N(C(=O)c1cc(F)ccc1-n1cc(C(=O)[C@@H]2CCN(C[C@H]3CC[C@H](NS(C)(=O)=O)CC3)C2)c2ccncc21)C(C)C [US20240335431, Example 4]	54
CC(C)N(C(=O)c1cc(F)ccc1-n1cc(C(=O)C2CN(C(=O)[C@H]3N[C@@H]4CC[C@H]3C4)C2)c2ccncc21)C(C)C [US20240335431, Example 5]	18
CC(C)N(C(=O)c1cc(F)ccc1-n1cc(C(=O)C2CN(C(=O)[C@H]3NC4CCC3CC4)C2)c2ccncc21)C(C)C [US20240335431, Example 6]	42
CC(C)N(C(=O)c1cc(F)ccc1-n1cc(C(=O)C2CN(C(=O)[C@H]3N[C@H]4C[C@@H]3[C@@H](F)C4)C2)c2ccncc21)C(C)C [US20240335431, Example 7]	24
CCN(C(=O)c1cc(F)ccc1-n1cc(C(=O)C2CN(C(=O)[C@H]3N[C@@H]4CC[C@H]3C4)C2)c2ccncc21)C(C)C [US20240335431, Example 8]	27
CCN(C(=O)c1cc(F)ccc1-n1cc(C(=O)C2CN(C(=O)[C@H]3NC4CCC3CC4)C2)c2ccncc21)C(C)C [US20240335431, Example 9]	51
CC(C)c1ncccc1-c1cc(F)ccc1-n1cc(C(=O)C2CN(C(=O)[C@H]3N[C@@H]4CC[C@H]3C4)C2)c2ccncc21 [US20240335431, Example 10]	4
CC(C)c1cnccc1-c1cc(F)ccc1-n1cc(C(=O)C2CN(C(=O)[C@H]3N[C@@H]4CC[C@H]3C4)C2)c2ccncc21 [US20240335431, Example 11]	4
CC(C)c1ncsc1-c1cc(F)ccc1-n1cc(C(=O)C2CN(C(=O)[C@H]3N[C@@H]4CC[C@H]3C4)C2)c2ccncc21 [US20240335431, Example 12]	6
CC(C)(F)c1ncccc1-c1cc(F)ccc1-n1cc(C(=O)C2CN(C(=O)[C@H]3N[C@@H]4CC[C@H]3C4)C2)c2ccncc21 [US20240335431, Example 13]	4
CC(C)N(C(=O)c1cc(F)ccc1-n1cc(C(=O)C2CN(C(=O)[C@H]3N[C@@H]4CC[C@H]3C4)C2)c2ccnnc21)C(C)C [US20240335431, Example 14]	139
CC(C)N(C(=O)c1cc(F)ccc1-n1cc(C(=O)C2CN(C(=O)[C@H]3N[C@@H]4CC[C@H]3C4)C2)c2ccnc(F)c21)C(C)C [US20240335431, Example 15]	17
CC(C)N(C(=O)c1cc(F)ccc1-n1cc(C(=O)C2CCN(C(=O)[C@H]3N[C@@H]4CC[C@H]3C4)CC2)c2ccncc21)C(C)C [US20240335431, Example 16]	21
CC(C)N(C(=O)c1cc(F)ccc1-n1cc(C(=O)C2CCN(C[C@H]3CC[C@H](NS(C)(=O)=O)CC3)CC2)c2ccncc21)C(C)C [US20240335431, Example 17]	21
C=C1C[C@@H]2CC[C@H]1[C@@H](C(=O)N1CCC(C(=O)c3cn(-c4ccc(F)cc4C(=O)N(C(C)C)C(C)C)c4cnccc34)CC1)N2 [US20240335431, Example 18]	37
CC(C)N(C(=O)c1cc(F)ccc1-n1cc(C(=O)C2CCN(C(=O)[C@H]3NC[C@@H]4C[C@@H]43)CC2)c2ccncc21)C(C)C [US20240335431, Example 19]	16
CC(C)N(C(=O)c1cc(F)ccc1-n1cc(C(=O)C2CCN(C(=O)[C@H]3NC[C@@H]4CCC[C@@H]43)CC2)c2ccncc21)C(C)C [US20240335431, Example 21]	16
CC(C)N(C(=O)c1cc(F)ccc1-n1cc(C(=O)C2CCN(C(=O)[C@H]3N[C@H]4C[C@@H]3[C@@H](F)C4)CC2)c2ccncc21)C(C)C [US20240335431, Example 22]	25
